Laboratory results from EP2961788B1, “NANOPARTICLES STABILIZED WITH NITROPHENYLBORONIC ACID COMPOSITIONS” (priority 2013, dated 2014).
Read-outs that look alike come from different tables or passages of the source.

System: BT-474 xenograft tumors
Protocol: Treatments began on day 1. […] All treatments were freshly prepared and given via intravenous tail vein injection. Injections were standardized at 150 µl per 20 g body weight of mice. […] Tumor sizes were recorded three times a week using caliper measurements (length x width^2/2) and health of the animals was continuously monitored. Animals were euthanized when tumor volumes exceeded 1000 mm^3. Six weeks after beginning of the treatment, animals were euthanized by CO2 asphyxiation.

[1] = 8 mg/kg, once per week for 3 weeks
[2] = 80 mg/kg, once per week for 3 weeks

Compound | Nend (number of animals surviving to end of study) (8 mg/kg (MAP-CPT: CPT basis), i.v. once per week for 3 weeks) | NTRD (number of treatment related death) [1] | Nreg to zero [1] | tumor inhibition compared to control group [1] | NTRD (number of treatment related death) [2] | Neuthan (number of animals euthanized due to exceeding tumor size limit of 1000 mm^3) [2] | Nreg to zero [2] | tumor inhibition compared to control group [2]
CC[C@@]1(O)C(=O)OCc2c1cc1n(c2=O)Cc2cc3ccccc3nc2-1 [CPT, Camptothecin] | 8/0 | 4 | 0 | no tumor inhibition | – | – | – | –
CCc1c2c(nc3ccc(OC(=O)N4CCC(N5CCCCC5)CC4)cc13)-c1cc3c(c(=O)n1C2)COC(=O)[C@]3(O)CC [Irinotecan] | – | – | – | – | 1 | 0 | 0 | non-significant tumor inhibition
